Reference: patent US12209087B2, “AKT1 modulators” (Alterome Therapeutics, Inc., priority 2022, dated 2025)
pIC50: −log10 of the molar value.

What follows are compounds tested against T1, full length AKT E17K (Homo sapiens, UniProt P31749, E17K) (assay: NanoBRET Target Engagement (TE) Assay). Settings: competitive displacement of tracer in cells, read-out: AKT1 E17K IC50.
T1 construct: host or cells: HEK-293 (ATCC CRL-1573)
T1 sequence (P31749 whole entry E17K): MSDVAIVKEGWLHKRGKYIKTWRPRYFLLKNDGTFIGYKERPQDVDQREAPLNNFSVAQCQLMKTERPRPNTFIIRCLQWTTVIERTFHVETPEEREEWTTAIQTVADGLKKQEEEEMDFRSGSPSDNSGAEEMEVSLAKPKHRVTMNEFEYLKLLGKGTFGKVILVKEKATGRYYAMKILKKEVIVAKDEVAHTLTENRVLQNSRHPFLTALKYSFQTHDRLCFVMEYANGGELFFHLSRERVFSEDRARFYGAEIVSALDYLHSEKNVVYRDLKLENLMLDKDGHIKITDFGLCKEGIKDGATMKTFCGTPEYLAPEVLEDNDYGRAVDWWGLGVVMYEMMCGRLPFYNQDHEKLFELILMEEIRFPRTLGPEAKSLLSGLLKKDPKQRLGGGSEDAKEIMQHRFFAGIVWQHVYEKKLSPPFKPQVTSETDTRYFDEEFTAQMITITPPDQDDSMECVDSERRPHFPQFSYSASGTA
Assay type: cell-based
Summary of the method: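 Compound and tracer incubated 2 h before luminescence at donor 450 nm and acceptor 600 nm, with extracellular signal inhibited. EC50 by sigmoidal variable-slope regression.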
With `COc1cnc(-c2ccc3nc(-c4cccnc4N)n(-c4ccc(CN5CCC(Nc6ccnc(C#N)n6)CC5)cc4)c3n2)nc1` [Example 581, 4-((1-(4-(2-(2-Aminopyridin-3-yl)-5-(5-methoxypyrimidin-2-yl)-3H-imidazo[4,5-b]pyridin-3-yl)benzyl)piperidin-4-yl)amino)pyrimidine-2-carbonitrile] the pIC50 was 7.22 to 7.82. `N#Cc1nccc(NC2CCN(Cc3ccc(-n4c(-c5cccnc5N)nc5ccc(OCF)nc54)cc3)CC2)n1` [Example 416, 4-((1-(4-(2-(2-Aminopyridin-3-yl)-5-(fluoromethoxy)-3H-imidazo[4,5-b]pyridin-3-yl)benzyl)piperidin-4-yl)amino)pyrimidine-2-carbonitrile] showed a pIC50 greater than 7.82. `N#Cc1nccc(NC2CCN(Cc3ccc(-n4c(-c5cccnc5N)nc5ccc(-c6ccc(F)cc6O)nc54)cc3)CC2)n1` [Example 544, 4-((1-(4-(2-(2-Aminopyridin-3-yl)-5-(4-fluoro-2-hydroxyphenyl)-3H-imidazo[4,5-b]pyridin-3-yl)benzyl)piperidin-4-yl)amino)pyrimidine-2-carbonitrile] gave a pIC50 greater than 7.82. `Cn1ncc(-c2ccc3nc(-c4nccnc4N)n(-c4ccc(CN5CCC(Nc6ccnc(C#N)n6)CC5)cc4)c3n2)n1` [Example 562, 4-((1-(4-(2-(3-Aminopyrazin-2-yl)-5-(2-methyl-2H-1,2,3-triazol-4-yl)-3H-imidazo[4,5-b]pyridin-3-yl)benzyl)piperidin-4-yl)amino)pyrimidine-2-carbonitrile] showed a pIC50 greater than 7.82. `N#Cc1nccc(NC2CCN(Cc3ccc(-n4c(-c5cccnc5N)nc5ccc(-c6ccc(C(F)F)cn6)nc54)cc3)CC2)n1` [Example 649, 4-((1-(4-(2-(2-Aminopyridin-3-yl)-5-(5-(difluoromethyl)pyridin-2-yl)-3H-imidazo[4,5-b]pyridin-3-yl)benzyl)piperidin-4-yl)amino)pyrimidine-2-carbonitrile] showed a pIC50 greater than 7.82. `N#Cc1nccc(NC2CCN(Cc3ccc(-n4c(-c5cccnc5N)nc5ccc(N)nc54)cc3)CC2)n1` [Example 497, 4-((1-(4-(5-Amino-2-(2-aminopyridin-3-yl)-3H-imidazo[4,5-b]pyridin-3-yl)benzyl)piperidin-4-yl)amino)pyrimidine-2-carbonitrile] was tested, and the pIC50 was 7.22 to 7.82. With `N#Cc1nccc(NC2CCN(Cc3ccc(-n4c(-c5cccnc5N)nc5ccc(-c6ccc(OCF)cn6)nc54)cc3)CC2)n1` [Example 580, 4-((1-(4-(2-(2-Aminopyridin-3-yl)-5-(5-(fluoromethoxy)pyridin-2-yl)-3H-imidazo[4,5-b]pyridin-3-yl)benzyl)piperidin-4-yl)amino)pyrimidine-2-carbonitrile] the pIC50 was greater than 7.82. `[2H]C([2H])([2H])c1nn(C)nc1-c1ccc2nc(-c3cccnc3N)n(-c3ccc(CN4CCC(Nc5ccnc(C#N)n5)CC4)cc3)c2n1` [Example 612, 4-((1-(4-(2-(2-Aminopyridin-3-yl)-5-(2-methyl-5-(methyl-d3)-2H-1,2,3-triazol-4-yl)-3H-imidazo[4,5-b]pyridin-3-yl)benzyl)piperidin-4-yl)amino)pyrimidine-2-carbonitrile] gave a pIC50 greater than 7.82. Compound `COc1cccc(-c2ccc3nc(-c4cccnc4N)n(-c4ccc(CN5CCC(Nc6ccnc(C#N)n6)CC5)cc4)c3n2)c1` [Example 395, 4-((1-(4-(2-(2-Aminopyridin-3-yl)-5-(3-methoxyphenyl)-3H-imidazo[4,5-b]pyridin-3-yl)benzyl)piperidin-4-yl)amino)pyrimidine-2-carbonitrile] has a pIC50 greater than 7.82. `N#Cc1nccc(NC2CC3(CCN(Cc4ccc(-n5c(-c6cccnc6N)nc6ccc(-c7ccccc7)nc65)cc4)CC3)C2)n1` [Example 362, 4-((7-(4-(2-(2-Aminopyridin-3-yl)-5-phenyl-3H-imidazo[4,5-b]pyridin-3-yl)benzyl)-7-azaspiro[3.5]nonan-2-yl)amino)pyrimidine-2-carbonitrile] was tested, and the pIC50 was greater than 7.82. In the case of `C[C@@H]1CN(Cc2ccc(-n3c(-c4cccnc4N)nc4ccc(-c5ccccc5)nc43)cc2)C[C@H](C)N1c1nccc(C#N)n1` [Example 379, 2-((2S,6R)-4-(4-(2-(2-Aminopyridin-3-yl)-5-phenyl-3H-imidazo[4,5-b]pyridin-3-yl)benzyl)-2,6-dimethylpiperazin-1-yl)pyrimidine-4-carbonitrile], the pIC50 was 5.00 to 6.22. Work on `N#Cc1nccc(NC2CCN(Cc3ccc(-n4c(-c5cccnc5N)nc5ccc(-c6ccc(F)cc6C(N)=O)nc54)cc3)CC2)n1` [Example 524, 2-(2-(2-aminopyridin-3-yl)-3-(4-((4-((2-cyanopyrimidin-4-yl)amino)piperidin-1-yl)methyl)phenyl)-3H-imidazo[4,5-b]pyridin-5-yl)-5-fluorobenzamide] yielded a pIC50 of 5.00 to 6.22. With `N#Cc1nccc(NC2CCN(Cc3ccc(-n4c(-c5cccnc5N)nc5ccc(OC(F)F)nc54)cc3)CC2)n1` [Example 535, 4-((1-(4-(2-(2-Aminopyridin-3-yl)-5-(difluoromethoxy)-3H-imidazo[4,5-b]pyridin-3-yl)benzyl)piperidin-4-yl)amino)pyrimidine-2-carbonitrile] the pIC50 was greater than 7.82. Work on `COC(=O)Nc1cccc(-c2ccc3nc(-c4cccnc4N)n(-c4ccc(CN5CCC(Nc6ccnc(C#N)n6)CC5)cc4)c3n2)c1` [Example 520, Methyl (3-(2-(2-aminopyridin-3-yl)-3-(4-((4-((2-cyanopyrimidin-4-yl)amino)piperidin-1-yl)methyl)phenyl)-3H-imidazo[4,5-b]pyridin-5-yl)phenyl)carbamate] yielded a pIC50 greater than 7.82. With `N#Cc1ccnc(NC2CCN(Cc3ccc(-n4c(-c5cccnc5N)nc5ccc(C6CC6)nc54)cc3)CC2)n1` [Example 351, 2-((1-(4-(2-(2-Aminopyridin-3-yl)-5-cyclopropyl-3H-imidazo[4,5-b]pyridin-3-yl)benzyl)piperidin-4-yl)amino)pyrimidine-4-carbonitrile] the pIC50 was 7.22 to 7.82. In the case of `[2H]C1(Nc2ccnc(C#N)n2)CCN(Cc2ccc(-n3c(-c4cccnc4N)nc4cccnc43)cc2)CC1` [Example 503, 4-((1-(4-(2-(2-Aminopyridin-3-yl)-3H-imidazo[4,5-b]pyridin-3-yl)benzyl)piperidin-4-yl-4-d)amino)pyrimidine-2-carbonitrile], the pIC50 was 7.22 to 7.82. `[2H]C([2H])([2H])N(c1ccnc(C#N)n1)C1CCN(C([2H])([2H])c2ccc(-n3c(-c4cccnc4N)nc4cccnc43)cc2)CC1` [Example 502, 4-((1-((4-(2-(2-Aminopyridin-3-yl)-3H-imidazo[4,5-b]pyridin-3-yl)phenyl)methyl-d2)piperidin-4-yl)(methyl-d3)amino)pyrimidine-2-carbonitrile] was tested, and the pIC50 was 7.22 to 7.82. `Cc1nncn1-c1ccc2nc(-c3cccnc3N)n(-c3ccc(CN4CCC(Nc5ccnc(C#N)n5)CC4)cc3)c2n1` [Example 588, 4-((1-(4-(2-(2-aminopyridin-3-yl)-5-(3-methyl-4H-1,2,4-triazol-4-yl)-3H-imidazo[4,5-b]pyridin-3-yl)benzyl)piperidin-4-yl)amino)pyrimidine-2-carbonitrile] gave a pIC50 of 7.22 to 7.82.

Same assay, conditions: competitive tracer displacement in living cells, read-out: AKT1 E17K IC50
Compound `N#Cc1nccc(N2CCN(Cc3ccc(-n4c(-c5cccnc5N)nc5ccc(-c6cccc(Cl)c6)nc54)cc3)CC2)n1` [Example 296, 4-(4-(4-(2-(2-Aminopyridin-3-yl)-5-(3-chlorophenyl)-3H-imidazo[4,5-b]pyridin-3-yl)benzyl)piperazin-1-yl)pyrimidine-2-carbonitrile] has a pIC50 greater than 7.82. `N#Cc1ccnc(NCc2ccc(-n3c(-c4cccnc4N)nc4cccnc43)cc2)c1` [Example 132, 2-((4-(2-(2-Aminopyridin-3-yl)-3H-imidazo[4,5-b]pyridin-3-yl)benzyl)amino)isonicotinonitrile] was tested, and the pIC50 was 5.00 to 6.22. `N#Cc1cncc(NC2CCN(Cc3ccc(-n4c(-c5cccnc5N)nc5ccc(-c6ccccc6)nc54)cc3)CC2)n1` [Example 89, 6-((1-(4-(2-(2-Aminopyridin-3-yl)-5-phenyl-3H-imidazo[4,5-b]pyridin-3-yl)benzyl)piperidin-4-yl)amino)pyrazine-2-carbonitrile] showed a pIC50 greater than 7.82. In the case of `N#Cc1cc(N2CCN(Cc3ccc(-n4c(-c5cccnc5N)nc5ccc(N6CCOCC6)nc54)cc3)CC2)ncn1` [Example 237, 6-(4-(4-(2-(2-Aminopyridin-3-yl)-5-morpholino-3H-imidazo[4,5-b]pyridin-3-yl)benzyl)piperazin-1-yl)pyrimidine-4-carbonitrile], the pIC50 was 7.22 to 7.82. `N#Cc1nccc(NC2CCN(Cc3ccc(-n4c(-c5cccnc5N)nc5ccc(-c6ccccc6)nc54)cc3)CC2)n1` [Example 88, 4-((1-(4-(2-(2-Aminopyridin-3-yl)-5-phenyl-3H-imidazo[4,5-b]pyridin-3-yl)benzyl)piperidin-4-yl)amino)pyrimidine-2-carbonitrile] gave a pIC50 greater than 7.82. Work on `N#Cc1nccc(N2CCN(Cc3ccc(-n4c(-c5cccnc5N)nc5ccc(C6CC6)nc54)cc3)CC2)n1` [Example 258, 4-(4-(4-(2-(2-Aminopyridin-3-yl)-5-cyclopropyl-3H-imidazo[4,5-b]pyridin-3-yl)benzyl)piperazin-1-yl)pyrimidine-2-carbonitrile] yielded a pIC50 greater than 7.82. For `N#Cc1nc2cc(F)cc(C(=O)N3CCN(Cc4ccc(-n5c(-c6cccnc6N)nc6cccnc65)cc4)CC3)c2s1` [Example 175, 7-(4-(4-(2-(2-aminopyridin-3-yl)-3H-imidazo[4,5-b]pyridin-3-yl)benzyl)piperazine-1-carbonyl)-5-fluorobenzo[d]thiazole-2-carbonitrile], the pIC50 was 5.00 to 6.22. `N#Cc1nccc(N2CC3CCC(C2)N3Cc2ccc(-n3c(-c4cccnc4N)nc4ccc(-c5ccccc5)nc43)cc2)n1` [Example 211, 4-(8-(4-(2-(2-Aminopyridin-3-yl)-5-phenyl-3H-imidazo[4,5-b]pyridin-3-yl)benzyl)-3,8-diazabicyclo[3.2.1]octan-3-yl)pyrimidine-2-carbonitrile] showed a pIC50 greater than 7.82. Work on `N#Cc1cc(C(=O)NC2C3CCC2CN(Cc2ccc(-n4c(-c5cccnc5N)nc5ccc(-c6ccccc6)nc54)cc2)C3)ncn1` (stereo not drawn) [Example 230, N-(3-(4-(2-(2-aminopyridin-3-yl)-5-phenyl-3H-imidazo[4,5-b]pyridin-3-yl)benzyl)-3-azabicyclo[3.2.1]octan-8-yl)-6-cyanopyrimidine-4-carboxamide] yielded a pIC50 of 6.22 to 7.22.
